Measurements: paper PMC7960626, “Phase I study assessing the mass balance, pharmacokinetics, and excretion of [^14C]-pevonedistat, a NEDD8-activating enzyme inhibitor in patients with advanced solid tumors” (Investigational New Drugs, 2020)
Entries after “also recorded” stand apart in the source; their conditions may differ. Like-named read-outs stand apart in the source and are kept apart here.

Tests used:
[1] = Plasma PK after a single 1-h IV infusion of [^14C]-pevonedistat 25 mg/m^2 (part A); type: in vivo, human
Text: This was a two-part (A and B), open-label, multicenter, mass balance, distribution, metabolism, excretion (DME) study in adult patients with advanced solid tumors. […] Patients were required to stay at the part A study site for approximately 8 days or until the discharge criteria were met, with a maximum estimated confinement period of 9–14 days. Upon completion of part A, patients had the option to participate in part B at Medical Center Hungarian Defense Forces, Budapest, Hungary. […] Treatment was administered for 12 cycles or until discontinuation criteria were met.
Complete urinary and fecal output were collected for analysis of PK (urine) and total radioactivity (urine and feces) throughout the confinement period until discharge criteria were met. Bioanalytical assay methods are shown in the Supplementary Methods. […] In part B, disease assessments were conducted using radiological evaluations (computed tomography [CT] scan or magnetic resonance imaging [MRI], as clinically indicated).
Non-compartmental analysis using Phoenix™ WinNonlin® version 8.0 (Pharsight Corp., Mountain View, California, USA) was used for estimation of PK parameters for pevonedistat in whole blood, plasma, and urine and for total radioactivity in whole blood, plasma, urine, and feces. The following single-dose PK parameters were derived: maximum plasma concentration (Cmax), area under the concentration–time curve from time 0 to infinity (AUC∞), AUC from time 0 to the last quantifiable concentration (AUC0 − last), terminal disposition phase half-life (t1/2), renal clearance (CLR), clearance (CL), and volume of distribution at steady state (Vss).
PK data were summarized using descriptive statistics, and the PK and mass balance parameters described in Supplementary Table S1 were calculated by non-compartmental analysis for each individual patient. Safety was assessed in all patients who received at least one dose of pevonedistat, and TEAEs were coded according to the Medical Dictionary for Regulatory Activities (MedDRA), version 20.0. Analysis of efficacy in part B was descriptive; disease response was assessed in all patients who received at least one dose of pevonedistat, had measurable disease (per entry criteria for part B), and had at least one post-baseline disease assessment. Response assessment was done by the investigator using Response Evaluation Criteria in Solid Tumors (RECIST) version 1.1. SAS version 9.4 was used for all statistical analyses. […]
160 All samples were analyzed applying the methods described below: […]

[2] = Mass balance: recovery of total radioactivity in urine and feces (part A); type: in vivo, human; conditions: post dose; single IV dose 25 mg/m^2
Protocol: This was a two-part (A and B), open-label, multicenter, mass balance, distribution, metabolism, excretion (DME) study in adult patients with advanced solid tumors. In part A, patients received a single IV infusion of [^14C]-pevonedistat 25 mg/m^2 (containing approximately 60–85 µCi, or 2.22–3.145 MBq, of total radioactivity) at a single center (Duna Medical Center, Budapest, Hungary). Patients were required to stay at the part A study site for approximately 8 days or until the discharge criteria were met, with a maximum estimated confinement period of 9–14 days. […]
The primary objectives of the study were to assess the mass balance (cumulative recovery of total radioactivity in urine and feces) and to characterize the PK of pevonedistat (whole blood, plasma, and urine) and total radioactivity (drug-related material; plasma and whole blood) following a single infusion of [^14C]-pevonedistat 25 mg/m^2 (part A).
(§1) Blood samples were collected for total radioactivity and PK assessments in whole blood and plasma at prespecified time points (pre dose [within 1 h before the start of the pevonedistat infusion], end of infusion, then 0.5, 1, 2, 3, 4, 8, 12, 24, 48, 72, 96, 120, 144 and 168 hours post dose). Complete urinary and fecal output were collected for analysis of PK (urine) and total radioactivity (urine and feces) throughout the confinement period until discharge criteria were met. […]

advanced solid tumors [3] = assay: Disease response by RECIST version 1.1 (part B); type: in vivo, human; conditions: 7 patients evaluable, with carboplatin/paclitaxel or docetaxel
Protocol: This was a two-part (A and B), open-label, multicenter, mass balance, distribution, metabolism, excretion (DME) study in adult patients with advanced solid tumors. In part A, patients received a single IV infusion of [^14C]-pevonedistat 25 mg/m^2 (containing approximately 60–85 µCi, or 2.22–3.145 MBq, of total radioactivity) at a single center (Duna Medical Center, Budapest, Hungary). Patients were required to stay at the part A study site for approximately 8 days or until the discharge criteria were met, with a maximum estimated confinement period of 9–14 days. Upon completion of part A, patients had the option to participate in part B at Medical Center Hungarian Defense Forces, Budapest, Hungary. In part B, patients received treatment in 3-week cycles with either: pevonedistat 20 mg/m^2 on days 1, 3, and 5 plus carboplatin AUC5 and paclitaxel 175 mg/m^2 on day 1; or pevonedistat 25 mg/m^2 on days 1, 3, and 5 plus docetaxel 75 mg/m^2 on day 1. Treatment was administered for 12 cycles or until discontinuation criteria were met.
as §1, with “met. Bioanalytical assay methods are shown in the Supplementary Methods. Safety was assessed by incidence and severity of TEAEs, vital signs, physical examinations, electrocardiograms, and clinical laboratory tests, and toxicities were graded according to the National Cancer Institute Common Terminology Criteria for Adverse Events (NCI CTCAE), version 4.03.” for “met.”
PK data were summarized using descriptive statistics, and the PK and mass balance parameters described in Supplementary Table S1 were calculated by non-compartmental analysis for each individual patient. […]

advanced solid tumors [4] = tested on: advanced solid tumors; set-up: method as in PMID 29781056; conditions: cited from earlier work
[5] = cited from earlier work
[6] = tested on: human xenograft tumors of activated B-cell (ABC) and germinal center B-cell (GCB) diffuse large B-cell lymphoma (DLBCL); set-up: method as in PMID 20525923; conditions: in vivo administration, mice; cited from earlier work
[7] = tested on: tumor cell lines including solid tumors (colon, lung) and hematological malignancies (myeloma, lymphoma); set-up: method as in PMID 19509147, PMID 20525923, PMID 20203261; conditions: preclinical studies; cited from earlier work
[8] = set-up: method as in PMID 30845347; conditions: strong and moderate CYP3A inhibitors (itraconazole); cited from earlier work
[9] = human, plasma, single 1-h IV infusion 25 mg/m^2, geometric mean (CV), N = 7
[10] = in combination with carboplatin plus paclitaxel

Compound: NS(=O)(=O)OC[C@@H]1C[C@@H](n2ccc3c(N[C@H]4CCc5ccccc54)ncnc32)C[C@@H]1O [Pevonedistat]
- CL renal ([1]; human, plasma, iv, 25 mg/m^2): 13.3 mL/min
- AUC(0-inf) [1, 9]: 1.46 µg·h/mL
- AUC(0-t) [1, 9]: 1.41 µg·h/mL
- Cmax [1, 9]: 0.218 µg/mL
- clearance [1, 9]: 537 mL/min
- Vd ([1]; human, plasma, single 1-h IV infusion 25 mg/m^2, geometric mean (CV), N = 7, read-out: Vss): 296 L
- half-life ([1]; human, plasma, single 1-h IV infusion 25 mg/m^2, mean (SD), N = 7): 8.4 h
- Exposure ratio (AUC∞) of pevonedistat vs. total drug-related material ([1]; plasma, single 1-h IV infusion 25 mg/m^2, mean): 0.41
- CLR as share of pevonedistat total plasma clearance ([1]; single dose 25 mg/m^2): approximately 2.5%
- systemic exposure of unchanged pevonedistat as share of drug-related material ([1]; single dose 25 mg/m^2, part A): 41%
- time by which the majority of the radioactivity was recovered [2]: ≤ 96 h
- best response of partial response (advanced solid tumors [3]): One
- best response of stable disease (advanced solid tumors [3]): 5 patients
- progressive disease (advanced solid tumors [3]): remaining patient
- maximum tolerated dose (MTD) (advanced solid tumors [4]; [10]): 20 mg/m^2
- overall response rate [ORR] (advanced solid tumors [4]; [10]): 35%
- maximum tolerated dose (MTD) (advanced solid tumors [4]; in combination with docetaxel): 25 mg/m^2
- overall response rate [ORR] (advanced solid tumors [4]; in combination with docetaxel): 16%
- PK linearity ([5]; dose range 25–278 mg/m^2): linear and dose-proportional
- elimination half-life in plasma ([5]; patients with metastatic melanoma): approximately 10 hours
- mean terminal elimination half-life ([5]; plasma, estimated across doses and schedules, 1-h IV infusion): 5 to 8 h
- typical CL ([5]; population PK analysis in more than 300 patients): 31.5 L/h
- effect of mild or moderate renal impairment (creatinine clearance 30–89 mL/min) on exposure ([5]; population PK analysis): does not have a clinically meaningful impact on pevonedistat exposures
- tumor growth [6]: complete tumor growth inhibition
- antitumor activity in cell lines [7]: growth inhibition
- effect of CYP3A inhibitors on pevonedistat exposure [8]: did not indicate clinically meaningful alterations in its PK; also recorded: did not result in clinically meaningful increases in pevonedistat exposure
